Results published in patent EP0049060A1, “Imidazoles” (BEECHAM GROUP PLC, priority 1980, dated 1982).
Where a name gives a salt, the structure may show the parent alone. Read-outs that look alike come from different tables or passages of the source.

Columns and labels:
[1] = target: T1, A-form of monoamine oxidase (Homo sapiens, UniProt P21397); assay: Monoamine oxidase A inhibition (other initial tests); assay type: biochemical
T1 sequence (P21397 1-527): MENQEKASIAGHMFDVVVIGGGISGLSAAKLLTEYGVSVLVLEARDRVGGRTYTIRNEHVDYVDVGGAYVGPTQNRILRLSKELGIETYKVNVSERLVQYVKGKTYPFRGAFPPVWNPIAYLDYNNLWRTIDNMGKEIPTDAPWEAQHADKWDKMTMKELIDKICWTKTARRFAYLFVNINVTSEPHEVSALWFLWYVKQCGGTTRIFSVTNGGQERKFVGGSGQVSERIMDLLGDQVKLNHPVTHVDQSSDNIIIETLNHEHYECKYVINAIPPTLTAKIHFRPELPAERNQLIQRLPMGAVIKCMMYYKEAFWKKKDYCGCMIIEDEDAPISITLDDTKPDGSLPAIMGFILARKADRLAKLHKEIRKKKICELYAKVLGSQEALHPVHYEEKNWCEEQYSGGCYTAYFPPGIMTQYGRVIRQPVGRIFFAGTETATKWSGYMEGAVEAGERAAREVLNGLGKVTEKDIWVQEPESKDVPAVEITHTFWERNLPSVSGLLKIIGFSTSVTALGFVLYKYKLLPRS

[2] = Acute toxicity (LD50) in mice; conditions: mouse, in vivo, po
mice [3] = assay: Acute toxicity (LD50) in mice; conditions: initial tests
mice [4] = assay: Potentiation of the Effects of 5-Hydroxytryptophan (anti-convulsant activity of 5 HTP, electroshock threshold); assay type: in vivo; conditions: for ED100: Mus musculus, po, dose increasing the elevation of electroshock threshold due to 5HTP by 100%
Protocol: (§1) The ability of the compounds of this invention to potentiate catecholaminesand 5-hydroxytryptamine was examined using the test methods (1) and (2) below, respectively. These tests are indicative of anti-depressant activity.
(2) Potentiation of the Effects of 5-Hydroxytryptophan
5 HTP Potentiation was measured in mice using the potentiation of the anti-convulsant activity of 5 HTP originally-described by Buus Lassen J., (1975), Psychopharmacol, 42, 21-6. Mice (10/group) were pretreated with the compounds under investigation and 30' later received a sub-threshold level dose of L-5 HTP (100 mg/kg ip). 30 minutes later they were subjected to electroshock and the shock level (in V) required to cause tonic extensor spasm in 50% of the mice determined for all groups.
The dose of compounds required to increase the elevation of electroshock threshold due to 5HTP by 100% is determined graphically.

mice [5] = assay: Prevention of Reserpine-induced Hypothermia; assay type: in vivo; conditions: Mus musculus, p.o., oral doses 24, 18 and 2 hours before 1 mg/kg i.v. reserpine, active = significant at p<0.05, read-out: Res Prev (lowest active dose)
Excerpt: as §1
(1) Prevention of Reserpine-induced Hypothermia
The method of Spencer in "Anti-Depressant Drugs: Proceedings of the 1st International Symposium", p 184-204. Ed. Garattini, S and Dukes MNG, Excerpta Med Foundation, Amsterdam, 1967, was used. Groups of 5 mice were given oral doses of the test compound 24 hours, 18 hours and 2 hours before an intravenous injection of 1 mg/kg reserpine base. The oral temperatures of the mice were taken immediately before the administration of the reserpine and 6 hours afterwards. Mean temperatures of groups given test compounds are compared with the mean temperatures of the reserpinised controls using the Students t test. Compounds causing significant difference at the level p<0.05 are considered active at that dose.

[6] = read-out: 5-HTP Potentiation, ED100

In the case of `Cc1nccn1CCOc1ccc(Cl)cc1Cl` [formula (II)"], the “inhibitor of the A-form of monoamine oxidase” value [1] is reported as “selective and reversible inhibitor”, the LD50 [2] is reported as greater than 900 mg/kg and the level of toxicity (mice [3]) is reported as “low level of toxicity”.
In the case of `Cc1nccn1CCOc1c(Cl)cccc1Cl` [Example 14, 1-(2',6'-Dichlorophenoxyethyl)-2-methylimidazole maleate], the ED100 (mice [4]; [6]) is reported as 9 mg/kg.
For `Cc1nccn1CCOc1ccc(Cl)cc1` [Example 1, 1-(4'-Chlorophenoxyethyl)-2-methyl imidazole], the minimal effective dose (mice [5]) was 10 mg/kg and the ED100 (mice [4]; read-out: 5 HTP pot ED100) was 5 mg/kg.
In the case of `Cc1nccn1CCOc1cc(Cl)ccc1Cl` [Example 13, l-(2',5'-Dichlorophenoxyethyl)-2-methylimidazole maleate], the ED100 (mice [4]; [6]) is reported as 19 mg/kg.
In the case of `Cc1nccn1CCOc1ccc(Cl)cc1Cl` [Example 8, 1-(2',4'-Dichlorophenoxyethyl)-2-methylimidazole], the minimal effective dose (mice [5]) is reported as 10 mg/kg and the ED100 (mice [4]; read-out: 5 HTP pot ED100) is reported as 20 mg/kg.
`Cc1nccn1CCOc1ccccc1` [Example 20, 1-(2'-Phenoxyethyl)-2-methylimidazole] showed an ED100 (mice [4]; [6]) of 10 mg/kg.
In the case of `Cc1nccn1CCOc1ccc(Br)cc1Br.O=C(O)/C=C\C(=O)O` [Example 15, 1-(2',4'-Dibromophenoxyethyl)-2-methylimidazole maleate], the ED100 (mice [4]; [6]) is reported as 34 mg/kg.
Work on `Cc1nccn1CCOc1cccc(C(F)(F)F)c1` [Example 21, 1-(3'-Trifluoromethylphenoxyethyl)-2-methylimidazole maleate] yielded an ED100 (mice [4]; [6]) of 26 mg/kg.
For “1-(2',4'-Dichlorophenoxyethyl)-4(5)-methylimidazole maleate [Example 22]”, the “5-HTP Potentiation, % Change of control at x mg/kg, p.o.” value (“5-HTP Potentiation, % Change … p.o.” below) (mice [4]; at 30 mg/kg p.o.) was 138% at 30.
With `Cc1nccn1CCOc1cccc(Cl)c1` [Example 6] the minimal effective dose (mice [5]) was 100 mg/kg and the ED100 (mice [4]; read-out: 5 HTP pot ED100) was 7 mg/kg.
Compound `Cc1nccn1CCOc1ccc(F)cc1` [Example 4] has a minimal effective dose (mice [5]) of 100 mg/kg and an ED100 (mice [4]; read-out: 5 HTP pot ED100) of 1 mg/kg.
Compound `Cc1nccn1CCOc1cccc(Cl)c1Cl` [Example 12, 1-(2',3'-Dichlorophenoxyethyl)-2-methylimidazole maleate] has an ED100 (mice [4]; [6]) of 28 mg/kg.
`Cc1nccn1CCOc1ccccc1Cl` [Example 7] showed a minimal effective dose (mice [5]) of 100 mg/kg.
Compound `COc1ccc(OCCn2ccnc2C)cc1` [Example 5] has a minimal effective dose (mice [5]) of 10 mg/kg.
In the case of `Cc1cc(OCCn2ccnc2C)cc(C)c1Cl` [Example 19, 1-(4'-Chloro-3',5'-dimethylphenoxyethyl)-2-methylimidazole maleate], the “5-HTP Potentiation, % Change … p.o.” value (mice [4]; at 100 mg/kg p.o.) is reported as 77% at 100.
Compound `Cc1nccn1CCCOc1ccc(Cl)cc1` [Example 2, 1-(4'-Chlorophenoxypropyl)-2-methyl imidazole] has a minimal effective dose (mice [5]) of 3 mg/kg and an ED100 (mice [4]; read-out: 5 HTP pot ED100) of 3 mg/kg.
For `Cc1nccn1CCOc1cc(Cl)c(Cl)c(Cl)c1` [Example 17, 1-(3',4',5'-Trichlorophenoxyethyl)-2-methylimidazole maleate], the ED100 (mice [4]; [6]) was 70 mg/kg.
In the case of `Cc1nccn1CCOc1cc(Cl)cc(Cl)c1.O=C(O)/C=C\C(=O)O` [Example 11, 1-(3',5'Dichlorophenoxyethyl)-2-methylimidazole maleate], the ED100 (mice [4]; [6]) is reported as 18 mg/kg.
For `Cc1nccn1CCOc1ccc(Br)cc1Cl` [Example 16, l-(4'-Bromo-2'-chlorophenoxyethyl)-2-methylimidazole maleate], the “5-HTP Potentiation, % Change … p.o.” value (mice [4]; at 30 mg/kg p.o.) was 96% at 30.
`Cc1nccn1CCCOc1ccc(F)cc1` [Example 9] gave an ED100 (mice [4]; read-out: 5 HTP pot ED100) of 10 mg/kg.
`Cc1nccn1CCCCOc1ccc(Cl)cc1` [Example 3, 1-(4'-Chlorophenoxybutyl)-2-methyl imidazole] gave a minimal effective dose (mice [5]) of 100 mg/kg and an ED100 (mice [4]; read-out: 5 HTP pot ED100) of 16 mg/kg.
`Cc1nccn1CCOc1ccc(Cl)c(Cl)c1` [Example 10, 1-(3',4'-Dichlorophenoxyethyl)-2-methylimidazole] gave an ED100 (mice [4]; [6]) of 12 mg/kg.
`Cc1cc(Cl)ccc1OCCn1ccnc1C` [Example 18, 1-(4'-Chloro-2'-methylphenoxyethyl)-2-methylimidazole maleate] showed an ED100 (mice [4]; [6]) of 10 mg/kg.
`CCc1nccn1CCOc1ccc(Cl)cc1Cl` [Example 23, 1-(2',4'-Dichlorophenoxyethyl)-2-ethylimidazole maleate] gave an ED100 (mice [4]; [6]) of 53 mg/kg.
